Legend:
Type in all cases: cell-based
GR (stimulated with DEX) = target: T1, GR (stimulated with DEX) (Homo sapiens, UniProt P04150); experiment: GR driven luciferase activity (DEX) in LNCaP-GR cells; details: LNCaP-GR luciferase reporter cells
T1 construct: expressed in transfected cells; host or cells: LNCaP (LNCaP-GR)
Method: Both LNCaP and GR overexpressing LNCaP cells were carrying luciferase reporters with AR response elements.
(§1) Reporter cells were treated with herbal extracts at 30, 100, 300, and 1000 μg/ml for 24 h in a 37° C.-CO2 incubator. DHT (25 nM) was used to stimulate androgen receptor activity. Dexamethasone (50 nM) was used to stimulate glucocorticoid receptor activity Cells were lysed using luciferase lysis buffer after which luciferase buffer with luciferin was added to generate luminescence. Luminescence was recorded using a luminescence microplate reader.

22Rv1 cells = experiment: Cell growth assay, 22Rv1 prostate cancer cells; details: in the presence or absence of DHT and DEX
Method: (§2) 22RV1 or LNCaP prostate cancer cells were grown in corning T75 cell culture flasks in RPMI1640 medium supplemented with 5% FBS, 50 μg/ml Kanamycin in a 37° C., 5% CO2 incubator.
(§3) 20,000 cells in 1 ml of medium (phenol red free RPMI1640, 5% charcoal-dialysis FBS, 50 μg/ml Kanamyacin) were seeded per well of a 24-well plate and incubated in a 37° C. incubator with 5% CO2 overnight. Different concentrations of herbal extract were added to each well in order to have final concentrations from 50 μg/ml to 500 μg/ml. […] For glucocorticoid receptor overexpressed LNCaP cells, dexamethasone (50 nM) was used to stimulate glucocorticoid receptor activity. For all breast cancer cells, E2 (10 nM) was used to stimulate ER activity. Control medium without any steroid hormone was used as a control setting. After 4 days of incubation, cells were fixed and stained for 2 h with 0.5% methylene blue in 50% ethanol, followed by washing with tap water to remove unbound dye. Plates were air dried and then cells were dissolved in 1% sarkosyl (sodium lauroyl sarcosinate) by shaking at room temperature for 3 h. […] All experiments were performed in triplicate wells and were repeated at least three times.

LNCaP cells = experiment: Cell growth assay, LNCaP prostate cancer cells
Method: as §2, §3

[1] = test system: LNCaP-GR (GR overexpressing) cells; experiment: Cell growth assay, GR overexpressing LNCaP cells; details: DEX stimulated
Method: as §3

androgen receptor (AR) = experiment: PSA-luciferase reporter assay, DHT induced, 22RV1 cells; details: equivalent doses, 22RV1 cells in the presence of DHT
Method: 22RV1 or LNCaP prostate cancer cells were used in the screening study. 22RV1 or LNCaP cell lines were stably transfected with PSA promoter-PGL4.2 luciferase reporter. DHT (25 nM) was used to stimulate androgen receptor activity for 24 h.
as §1

T1 sequence (P04150 whole entry): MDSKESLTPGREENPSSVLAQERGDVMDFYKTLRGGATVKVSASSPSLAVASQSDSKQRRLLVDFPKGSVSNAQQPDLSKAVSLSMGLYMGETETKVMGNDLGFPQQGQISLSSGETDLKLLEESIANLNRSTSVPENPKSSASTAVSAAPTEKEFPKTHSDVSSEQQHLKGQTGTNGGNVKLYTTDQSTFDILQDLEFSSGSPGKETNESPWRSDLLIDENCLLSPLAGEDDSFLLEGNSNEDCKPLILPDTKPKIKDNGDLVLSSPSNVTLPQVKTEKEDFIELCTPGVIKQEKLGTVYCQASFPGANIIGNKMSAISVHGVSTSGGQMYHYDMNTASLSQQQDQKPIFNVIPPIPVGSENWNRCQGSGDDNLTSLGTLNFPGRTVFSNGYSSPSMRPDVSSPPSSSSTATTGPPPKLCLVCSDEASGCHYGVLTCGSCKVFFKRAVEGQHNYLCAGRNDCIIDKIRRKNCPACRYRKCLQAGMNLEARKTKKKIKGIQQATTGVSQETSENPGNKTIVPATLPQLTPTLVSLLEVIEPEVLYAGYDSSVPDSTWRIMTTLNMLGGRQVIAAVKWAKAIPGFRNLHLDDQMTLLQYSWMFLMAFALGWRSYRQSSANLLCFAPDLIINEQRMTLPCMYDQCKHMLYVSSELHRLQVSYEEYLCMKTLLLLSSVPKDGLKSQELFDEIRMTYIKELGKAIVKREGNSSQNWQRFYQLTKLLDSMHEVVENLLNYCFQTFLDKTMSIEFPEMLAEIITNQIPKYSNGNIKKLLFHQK

Row | Compound | inhibition of DEX induced transcriptional response (GR (stimulated with DEX)) | growth inhibitory effect on 22RV1 cells (in words) (22Rv1 cells) | susceptibility of LNCaP cell growth to treatment (in words) (LNCaP cells; in the absence of DHT) | sensitivity of LNCaP cell growth to treatment (in words) (LNCaP cells; in the presence of DHT) | resistance of LNCaP-GR cell growth (in words) [1] | inhibitory effect on AR mediated transcriptional response (androgen receptor (AR))
1 | CNC(=O)c1ccc(N2C(=S)N(c3ccc(C#N)c(C(F)(F)F)c3)C(=O)C2(C)C)cc1F [Enzalutamide, reference compound] | but not DEX induced transcriptional response | resistant | not be susceptible | more sensitive | resistant | –
2 | Cc1c(O)cc2c(c1O)C(=O)c1ccc(O)cc1C2=O [TMT, 1,3,6-Trihydroxy-2-methyl-9,10-anthracenedione] | – | – | – | – | – | very weak activity

Source: US20210196779A1, “Compositions and Methods for Treating Steroid Hormone-Related Diseases or Disorders” (YALE UNIVERSITY, priority 2018, published 2021)
